Results as given in PubChem BioAssay AID1259408 (Genetic Toxicology Data Bank (GENE-TOX), 2018).
The source made the active and inactive calls. The rule behind the calls is not given here.

Test system: GENE-TOX genotoxicity assays, various organisms and cells
Test: GENE-TOX mutagenicity studies
Conditions: for call: Assay Type: In vivo carcinogenicity studies
Source text: GENE-TOX provides genetic toxicology (mutagenicity) test data from expert peer review of open scientific literature for more than 3,000 chemicals from the United States Environmental Protection Agency (EPA). GENE-TOX was established to select assay systems for evaluation, review data in the scientific literature, and recommend proper testing protocols and evaluation procedures for these systems.
GENE-TOX covers the years 1991 - 1998. It is no longer updated.
This is an archive assay for GENE-TOX mutagenicity studies.

[1] = Species/Cell Type: Chinese hamster lung (V79) cells, Assay Type: Forward gene mutation at the HPRT or ouabain locus, Assay Code: V79-, Evaluation Type: Evaluation A (Pre-1980)
[2] = Species/Cell Type: Drosophila melanogaster, Assay Type: Sex-linked recessive lethal gene mutation, Assay Code: SRLT, Evaluation Type: Evaluation A (Pre-1980)
[3] = Species/Cell Type: Human, Assay Type: Sister-chromatid exchange (SCE) in vitro, Assay Code: SC1+D, Dose Response: With dose response, Evaluation Type: Evaluation B (Post-1980)
[4] = Species/Cell Type: Salmonella typhimurium (one or more of the five standard strains: TA98, TA100, TA1535, TA1537, and TA1538), Assay Type: Histidine reverse gene mutation, Ames assay, Assay Code: SAL+*, Activation: With metabolic activation, Evaluation Type: Evaluation A (Pre-1980)
[5] = Species/Cell Type: Mammalian polychromatic erythrocytes, Assay Type: Micronucleus test, chromosome aberrations, Assay Code: MNTT, Evaluation Type: Evaluation B (Post-1980)
[6] = Species/Cell Type: Salmonella typhimurium (one or more of the five standard strains: TA98, TA100, TA1535, TA1537, and TA1538), Assay Type: Histidine reverse gene mutation, Ames assay, Assay Code: SALT, Evaluation Type: Evaluation A (Pre-1980)

CC(=O)Nc1ccc2c(c1)Cc1ccccc1-2
mutagenic call [1]: inactive; negative | mutagenic call (Species/Cell Type: Chinese hamster ovary (CHO) cells, Assay Type: Forward gene mutation at the HPRT locus, Assay Code: CHO+*, Activation: With metabolic activation, Evaluation Type: Evaluation B (Post-1980)): active; positive | mutagenic call [2]: no conclusion | mutagenic call (Species/Cell Type: Escherichia coli polA (W3110 vs P3478), Assay Type: Rec-assay, DNA effects (bacterial DNA repair), Assay Code: RE2+, Evaluation Type: Evaluation A (Pre-1980)): active; positive | mutagenic call (Species/Cell Type: Escherichia coli polA (W3119 vs P3478), Assay Type: Rec-assay, DNA effects (bacterial DNA repair), Assay Code: RE1-, Evaluation Type: Evaluation A (Pre-1980)): inactive; negative | mutagenic call (Species/Cell Type: Fischer rat embryo (RLV/1706) cells, Assay Type: Cell transformation, viral enhanced, Assay Code: CTRT, Evaluation Type: Evaluation A (Pre-1980)): no conclusion | mutagenic call (Species/Cell Type: Human diploid fibroblasts, Assay Type: Unscheduled DNA synthesis (UDS) in vitro, DNA effects, Assay Code: UDHT, Evaluation Type: Evaluation A (Pre-1980)): no conclusion | mutagenic call (Species/Cell Type: Human lymphocytes, Assay Type: Sister-chromatid exchange (SCE) in vitro, Assay Code: SCL-, Evaluation Type: Evaluation A (Pre-1980)): inactive; negative | mutagenic call [3]: active; positive | mutagenic call (Species/Cell Type: Human, Assay Type: Sister-chromatid exchange (SCE) in vitro, Assay Code: SC1-, Evaluation Type: Evaluation A (Pre-1980)): inactive; negative | mutagenic call (Species/Cell Type: Mammalian polychromatic erythrocytes, Assay Type: Micronucleus test, chromosome aberrations, Assay Code: MNT+, Evaluation Type: Evaluation A (Pre-1980)): active; positive | mutagenic call (Species/Cell Type: Mouse (BALB/c-3T3) cells, Assay Type: Cell transformation, Assay Code: CTB+D, Dose Response: With dose response, Evaluation Type: Evaluation A (Pre-1980)): active; positive | mutagenic call (Species/Cell Type: Mouse lymphoma (L5178Y) cells, Assay Type: Forward gene mutation at the thymidine kinase (TK) locus, chromosome aberrations, Assay Code: L51+*, Activation: With metabolic activation, Evaluation Type: Evaluation A (Pre-1980)): active; positive | mutagenic call (Species/Cell Type: Mouse, Sex: Male, Assay Type: Sperm morphology, Assay Code: SPI-, Evaluation Type: Evaluation A (Pre-1980)): inactive; negative | call (Species/Cell Type: Nonhuman, Assay Code: CCG+, Evaluation Type: Evaluation A (Pre-1980)): active; positive | mutagenic call (Species/Cell Type: Nonhuman, Assay Type: Sister-chromatid exchange (SCE) in vitro, Assay Code: SC2+, Evaluation Type: Evaluation A (Pre-1980)): active; positive | mutagenic call (Species/Cell Type: Nonhuman, Assay Type: Sister-chromatid exchange (SCE) in vivo, Assay Code: SC3+D, Dose Response: With dose response, Evaluation Type: Evaluation B (Post-1980)): active; positive | mutagenic call (Species/Cell Type: Nonhuman, Assay Type: Sister-chromatid exchange (SCE) in vivo, Assay Code: SC3T, Evaluation Type: Evaluation A (Pre-1980)): no conclusion | mutagenic call (Species/Cell Type: Rat primary hepatocytes, Assay Type: Unscheduled DNA synthesis (UDS) in vitro, DNA effects, Assay Code: UDP+, Evaluation Type: Evaluation A (Pre-1980)): active; positive | mutagenic call (Species/Cell Type: Saccharomyces cerevisiae, Assay Type: Mitotic recombination or gene conversion, Assay Code: YEC-*, Activation: With metabolic activation, Evaluation Type: Evaluation A (Pre-1980)): inactive; negative | mutagenic call (Species/Cell Type: Saccharomyces cerevisiae, Assay Type: Mitotic recombination or gene conversion, Assay Code: YEH-*, Activation: With metabolic activation, Evaluation Type: Evaluation A (Pre-1980)): inactive; negative | mutagenic call [4]: active; positive | mutagenic call (Species/Cell Type: Salmonella typhimurium, Assay Type: Forward and reverse gene mutation, body fluid assay, Assay Code: BFU+, Evaluation Type: Evaluation A (Pre-1980)): active; positive | mutagenic call (Species/Cell Type: Salmonella typhimurium, Assay Type: Forward and reverse gene mutation, host-mediated assay, Assay Code: HMA+, Evaluation Type: Evaluation A (Pre-1980)): active; positive | mutagenic call (Species/Cell Type: Syrian hamster embryo (SA7/SHE) cells, Assay Type: Cell transformation, viral enhanced, Assay Code: CT7-, Evaluation Type: Evaluation A (Pre-1980)): inactive; negative | mutagenic call (Species/Cell Type: Syrian hamster embryo (SHE) cells, Assay Type: Cell transformation, clonal assay, Assay Code: CTC+D*, Activation: With metabolic activation, Dose Response: With dose response, Evaluation Type: Evaluation A (Pre-1980)): active; positive

Cn1ncc2c(NC3=NCCO3)cccc21
mutagenic call [5]: no conclusion | mutagenic call (Species/Cell Type: Nonhuman, Assay Type: Sister-chromatid exchange (SCE) in vivo, Assay Code: SC3T, Evaluation Type: Evaluation B (Post-1980)): no conclusion

Cc1ncc([N+](=O)[O-])n1C
mutagenic call (Species/Cell Type: Salmonella typhimurium (one or more of the five standard strains: TA98, TA100, TA1535, TA1537, and TA1538), Assay Type: Histidine reverse gene mutation, Ames assay, Assay Code: SAL+, Evaluation Type: Evaluation A (Pre-1980)): active; positive

O=Nc1ccc2ccc3cccc4ccc1c2c34
mutagenic call (Species/Cell Type: Chinese hamster ovary (CHO) cells, Assay Type: Forward gene mutation at the HPRT locus, Assay Code: CHO+, Evaluation Type: Evaluation B (Post-1980)): active; positive

COC(=O)[C@@]12Oc3ccc(-c4ccc5c(c4O)C(O)=C4C(=O)C[C@H](C)[C@@H](O)[C@]4(C(=O)OC)O5)c(O)c3C(O)=C1C(=O)C[C@H](C)[C@H]2O
mutagenic call [6]: no conclusion

Cc1c2ccccc2c(C)c2c3c(ccc12)[C@H](O)[C@@H](O)C=C3
mutagenic call (Species/Cell Type: Chinese hamster lung (V79) cells, Assay Type: Forward gene mutation at the HPRT or ouabain locus, Assay Code: V79+, Evaluation Type: Evaluation A (Pre-1980)): active; positive | mutagenic call (Species/Cell Type: Mouse prostate cells, Assay Type: Cell transformation, Assay Code: CTM+, Evaluation Type: Evaluation A (Pre-1980)): active; positive | call (Species/Cell Type: Nonhuman, Assay Code: CCG+L, Evaluation Type: Evaluation A (Pre-1980)): active; positive

CC1CCCCC1NC(=O)Nc1ccccc1 (stereo unspecified)
mutagenic call (Species/Cell Type: Bacillus subtilis (H17 vs M45), Assay Type: Rec-assay, spot test, DNA effects (bacterial DNA repair), Assay Code: REWT, Evaluation Type: Evaluation A (Pre-1980)): no conclusion | mutagenic call (Species/Cell Type: Drosophila melanogaster, Assay Type: Sex-linked recessive lethal gene mutation, Assay Code: SRL-, Evaluation Type: Evaluation A (Pre-1980)): inactive; negative | mutagenic call (Species/Cell Type: Escherichia coli WP2 UVRA, Assay Type: Tryptophan reverse gene mutation, Assay Code: WPU-*, Activation: With metabolic activation, Evaluation Type: Evaluation A (Pre-1980)): inactive; negative | mutagenic call (Species/Cell Type: Escherichia coli polA (W3119 vs P3478), Assay Type: Rec-assay, DNA effects (bacterial DNA repair), Assay Code: RE1T, Evaluation Type: Evaluation A (Pre-1980)): no conclusion | mutagenic call (Species/Cell Type: Human diploid fibroblasts, Assay Type: Unscheduled DNA synthesis (UDS) in vitro, DNA effects, Assay Code: UDH-, Evaluation Type: Evaluation A (Pre-1980)): inactive; negative | mutagenic call (Species/Cell Type: Saccharomyces cerevisiae, Assay Type: Mitotic recombination or gene conversion, Assay Code: YEH-, Evaluation Type: Evaluation A (Pre-1980)): inactive; negative | mutagenic call (Species/Cell Type: Salmonella typhimurium (one or more of the five standard strains: TA98, TA100, TA1535, TA1537, and TA1538), Assay Type: Histidine reverse gene mutation, Ames assay, Assay Code: SAL-, Evaluation Type: Evaluation A (Pre-1980)): inactive; negative

CCCCNCC
mutagenic call (Species/Cell Type: Fischer rat embryo (RLV/1706) cells, Assay Type: Cell transformation, viral enhanced, Assay Code: CTR-, Evaluation Type: Evaluation A (Pre-1980)): inactive; negative

Clc1cccc(Cl)c1
mutagenic call (Species/Cell Type: Mammalian polychromatic erythrocytes, Assay Type: Micronucleus test, chromosome aberrations, Assay Code: MNT+, Evaluation Type: Evaluation B (Post-1980)): active; positive

CN(C)C(=O)Nc1ccc(Oc2ccc(Cl)cc2)cc1
mutagenic call (Species/Cell Type: Saccharomyces cerevisiae, Assay Type: Mitotic recombination or gene conversion, Assay Code: YEC-, Evaluation Type: Evaluation A (Pre-1980)): inactive; negative

O=S1(=O)OC(c2ccc(O)cc2)(c2ccc(O)cc2)c2ccccc21
mutagenic call (Species/Cell Type: Bacillus subtilis (H17 vs M45T), Assay Type: Rec-assay, spot test, DNA effects (bacterial DNA repair), Assay Code: REXT, Evaluation Type: Evaluation A (Pre-1980)): no conclusion

CC(=O)OC[C@H]1O[C@@H](Oc2cccc3c2C(=O)c2c(O)cccc2C3=O)[C@H](OC(C)=O)[C@@H](OC(C)=O)[C@@H]1OC(C)=O
mutagenic call [4]: active; positive

O=C1c2cc(O)cc(O)c2C(=O)c2c1cc1c(c2O)[C@@H]2C=CO[C@@H]2O1
mutagenic call [4]: active; positive

C=CCOc1nc2c(c(=O)n(C)c(=O)n2C)n1C
mutagenic call (Species/Cell Type: Allium cepa, Assay Type: Chromosome aberrations, Assay Code: ALC+D, Dose Response: With dose response, Evaluation Type: Evaluation A (Pre-1980)): active; positive

C/C=C/c1cn([C@H]2C[C@H](O)[C@@H](CO)O2)c(=O)[nH]c1=O
mutagenic call [3]: active; positive

O[C@@H]1c2cccc3ccc4cc5ccccc5c(c4c23)[C@@H]1O
mutagenic call [1]: inactive; negative | mutagenic call [6]: no conclusion

COP(=S)(OC)Oc1ccc([N+](=O)[O-])c(C)c1
mutagenic call [2]: no conclusion | mutagenic call (Species/Cell Type: Human, Assay Type: Sister-chromatid exchange (SCE) in vitro, Assay Code: SC1+, Evaluation Type: Evaluation B (Post-1980)): active; positive | mutagenic call [5]: no conclusion | mutagenic call (Species/Cell Type: Rodents, Sex: Male, Assay Type: Dominant lethal test, Assay Code: DLT-, Evaluation Type: Evaluation A (Pre-1980)): inactive; negative | mutagenic call (Species/Cell Type: Salmonella typhimurium, Assay Type: Forward and reverse gene mutation, host-mediated assay, Assay Code: HMA-, Evaluation Type: Evaluation A (Pre-1980)): inactive; negative
